Experimental data taken from ChEMBL document CHEMBL5291721, “A preclinical secondary pharmacology resource illuminates target-adverse drug reaction associations of marketed drugs” (Nat Commun, 2023).

Columns and labels:
[1] = target: Voltage-dependent N-type calcium channel subunit alpha-1B (Rattus norvegicus, UniProt Q02294); assay type: functional
D(1A) dopamine receptor = D(1A) dopamine receptor (Homo sapiens, UniProt P21728)
Histamine H2 receptor = Histamine H2 receptor (Homo sapiens, UniProt P25021)
[2] = target: T1, Alpha-2A adrenergic receptor (Homo sapiens, UniProt P08913)
T1 sequence (P08913 whole entry): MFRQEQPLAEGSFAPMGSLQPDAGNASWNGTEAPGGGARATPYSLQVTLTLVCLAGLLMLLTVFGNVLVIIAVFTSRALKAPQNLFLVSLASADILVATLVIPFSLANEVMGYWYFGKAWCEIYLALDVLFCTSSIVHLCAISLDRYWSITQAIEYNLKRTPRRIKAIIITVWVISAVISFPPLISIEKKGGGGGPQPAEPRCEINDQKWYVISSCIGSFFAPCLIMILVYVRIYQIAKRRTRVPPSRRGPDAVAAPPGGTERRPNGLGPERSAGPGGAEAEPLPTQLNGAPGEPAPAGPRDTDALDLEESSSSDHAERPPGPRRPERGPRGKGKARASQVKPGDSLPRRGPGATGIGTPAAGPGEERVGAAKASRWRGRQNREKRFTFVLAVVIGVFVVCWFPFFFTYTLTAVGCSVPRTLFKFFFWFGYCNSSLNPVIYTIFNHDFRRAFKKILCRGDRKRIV

Androgen receptor [3] = target: T2, Androgen receptor (Rattus norvegicus, UniProt P15207)
T2 sequence (P15207 whole entry): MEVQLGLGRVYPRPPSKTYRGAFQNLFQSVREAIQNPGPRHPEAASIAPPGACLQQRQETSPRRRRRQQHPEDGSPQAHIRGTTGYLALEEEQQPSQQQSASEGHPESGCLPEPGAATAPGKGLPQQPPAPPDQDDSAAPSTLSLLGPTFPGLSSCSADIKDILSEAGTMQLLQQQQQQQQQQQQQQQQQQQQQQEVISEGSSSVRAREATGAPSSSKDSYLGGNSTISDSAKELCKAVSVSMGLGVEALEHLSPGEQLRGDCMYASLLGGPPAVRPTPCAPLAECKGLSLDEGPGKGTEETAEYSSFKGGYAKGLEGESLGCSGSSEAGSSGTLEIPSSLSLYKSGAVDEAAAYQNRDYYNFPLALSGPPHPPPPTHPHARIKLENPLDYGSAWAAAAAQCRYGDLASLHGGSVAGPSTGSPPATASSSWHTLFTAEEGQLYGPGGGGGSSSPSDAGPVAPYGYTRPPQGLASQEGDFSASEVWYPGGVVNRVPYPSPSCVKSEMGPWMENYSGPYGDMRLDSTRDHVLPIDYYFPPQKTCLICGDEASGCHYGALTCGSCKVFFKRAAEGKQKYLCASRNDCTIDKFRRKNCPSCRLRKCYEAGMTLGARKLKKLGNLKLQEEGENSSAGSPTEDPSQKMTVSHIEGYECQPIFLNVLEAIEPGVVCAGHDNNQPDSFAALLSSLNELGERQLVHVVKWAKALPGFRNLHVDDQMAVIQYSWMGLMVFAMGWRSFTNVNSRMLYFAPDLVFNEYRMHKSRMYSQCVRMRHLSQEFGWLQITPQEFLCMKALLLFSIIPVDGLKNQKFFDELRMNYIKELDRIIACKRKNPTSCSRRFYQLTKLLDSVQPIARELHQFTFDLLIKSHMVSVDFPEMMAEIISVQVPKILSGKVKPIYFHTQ

[4] = target: Beta-3 adrenergic receptor (Homo sapiens, UniProt P13945)
Histamine H1 receptor = Histamine H1 receptor (Homo sapiens, UniProt P35367); assay type: functional, cell-based
Androgen receptor [5] = target: T2, Androgen receptor; assay type: functional
[6] = target: Sodium channel protein type 5 subunit alpha (Homo sapiens, UniProt Q14524); assay type: functional, cell-based
[7] = target: Gamma-aminobutyric acid receptor subunit alpha-1/alpha-2/beta-2/gamma-2 (Homo sapiens, UniProt P14867+P18507+P47869+P47870); assay type: functional, cell-based
[8] = target: Gamma-aminobutyric acid type B receptor subunit 1 (Homo sapiens, UniProt Q9UBS5)
[9] = target: 5-hydroxytryptamine receptor 6 (Homo sapiens, UniProt P50406)
[10] = target: 5-hydroxytryptamine receptor 7 (Homo sapiens, UniProt P34969)
Also: assay procedure not described here.

Chain of Histamine H1 receptor (P35367 whole entry): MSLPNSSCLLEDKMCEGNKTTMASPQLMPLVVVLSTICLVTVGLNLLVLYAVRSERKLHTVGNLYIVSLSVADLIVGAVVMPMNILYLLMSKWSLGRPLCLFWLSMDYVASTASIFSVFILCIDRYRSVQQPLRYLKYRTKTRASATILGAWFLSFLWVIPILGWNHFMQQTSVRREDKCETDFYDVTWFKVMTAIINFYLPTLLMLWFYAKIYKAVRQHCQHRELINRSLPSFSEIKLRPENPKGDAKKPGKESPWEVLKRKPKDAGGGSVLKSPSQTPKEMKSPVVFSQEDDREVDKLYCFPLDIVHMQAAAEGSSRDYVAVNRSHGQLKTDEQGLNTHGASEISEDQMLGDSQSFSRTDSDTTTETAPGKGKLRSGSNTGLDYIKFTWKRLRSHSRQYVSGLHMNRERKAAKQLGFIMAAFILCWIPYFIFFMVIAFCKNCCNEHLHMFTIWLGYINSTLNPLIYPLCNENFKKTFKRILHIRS
Chain of Voltage-dependent N-type calcium channel subunit alpha-1B (Q02294 whole entry): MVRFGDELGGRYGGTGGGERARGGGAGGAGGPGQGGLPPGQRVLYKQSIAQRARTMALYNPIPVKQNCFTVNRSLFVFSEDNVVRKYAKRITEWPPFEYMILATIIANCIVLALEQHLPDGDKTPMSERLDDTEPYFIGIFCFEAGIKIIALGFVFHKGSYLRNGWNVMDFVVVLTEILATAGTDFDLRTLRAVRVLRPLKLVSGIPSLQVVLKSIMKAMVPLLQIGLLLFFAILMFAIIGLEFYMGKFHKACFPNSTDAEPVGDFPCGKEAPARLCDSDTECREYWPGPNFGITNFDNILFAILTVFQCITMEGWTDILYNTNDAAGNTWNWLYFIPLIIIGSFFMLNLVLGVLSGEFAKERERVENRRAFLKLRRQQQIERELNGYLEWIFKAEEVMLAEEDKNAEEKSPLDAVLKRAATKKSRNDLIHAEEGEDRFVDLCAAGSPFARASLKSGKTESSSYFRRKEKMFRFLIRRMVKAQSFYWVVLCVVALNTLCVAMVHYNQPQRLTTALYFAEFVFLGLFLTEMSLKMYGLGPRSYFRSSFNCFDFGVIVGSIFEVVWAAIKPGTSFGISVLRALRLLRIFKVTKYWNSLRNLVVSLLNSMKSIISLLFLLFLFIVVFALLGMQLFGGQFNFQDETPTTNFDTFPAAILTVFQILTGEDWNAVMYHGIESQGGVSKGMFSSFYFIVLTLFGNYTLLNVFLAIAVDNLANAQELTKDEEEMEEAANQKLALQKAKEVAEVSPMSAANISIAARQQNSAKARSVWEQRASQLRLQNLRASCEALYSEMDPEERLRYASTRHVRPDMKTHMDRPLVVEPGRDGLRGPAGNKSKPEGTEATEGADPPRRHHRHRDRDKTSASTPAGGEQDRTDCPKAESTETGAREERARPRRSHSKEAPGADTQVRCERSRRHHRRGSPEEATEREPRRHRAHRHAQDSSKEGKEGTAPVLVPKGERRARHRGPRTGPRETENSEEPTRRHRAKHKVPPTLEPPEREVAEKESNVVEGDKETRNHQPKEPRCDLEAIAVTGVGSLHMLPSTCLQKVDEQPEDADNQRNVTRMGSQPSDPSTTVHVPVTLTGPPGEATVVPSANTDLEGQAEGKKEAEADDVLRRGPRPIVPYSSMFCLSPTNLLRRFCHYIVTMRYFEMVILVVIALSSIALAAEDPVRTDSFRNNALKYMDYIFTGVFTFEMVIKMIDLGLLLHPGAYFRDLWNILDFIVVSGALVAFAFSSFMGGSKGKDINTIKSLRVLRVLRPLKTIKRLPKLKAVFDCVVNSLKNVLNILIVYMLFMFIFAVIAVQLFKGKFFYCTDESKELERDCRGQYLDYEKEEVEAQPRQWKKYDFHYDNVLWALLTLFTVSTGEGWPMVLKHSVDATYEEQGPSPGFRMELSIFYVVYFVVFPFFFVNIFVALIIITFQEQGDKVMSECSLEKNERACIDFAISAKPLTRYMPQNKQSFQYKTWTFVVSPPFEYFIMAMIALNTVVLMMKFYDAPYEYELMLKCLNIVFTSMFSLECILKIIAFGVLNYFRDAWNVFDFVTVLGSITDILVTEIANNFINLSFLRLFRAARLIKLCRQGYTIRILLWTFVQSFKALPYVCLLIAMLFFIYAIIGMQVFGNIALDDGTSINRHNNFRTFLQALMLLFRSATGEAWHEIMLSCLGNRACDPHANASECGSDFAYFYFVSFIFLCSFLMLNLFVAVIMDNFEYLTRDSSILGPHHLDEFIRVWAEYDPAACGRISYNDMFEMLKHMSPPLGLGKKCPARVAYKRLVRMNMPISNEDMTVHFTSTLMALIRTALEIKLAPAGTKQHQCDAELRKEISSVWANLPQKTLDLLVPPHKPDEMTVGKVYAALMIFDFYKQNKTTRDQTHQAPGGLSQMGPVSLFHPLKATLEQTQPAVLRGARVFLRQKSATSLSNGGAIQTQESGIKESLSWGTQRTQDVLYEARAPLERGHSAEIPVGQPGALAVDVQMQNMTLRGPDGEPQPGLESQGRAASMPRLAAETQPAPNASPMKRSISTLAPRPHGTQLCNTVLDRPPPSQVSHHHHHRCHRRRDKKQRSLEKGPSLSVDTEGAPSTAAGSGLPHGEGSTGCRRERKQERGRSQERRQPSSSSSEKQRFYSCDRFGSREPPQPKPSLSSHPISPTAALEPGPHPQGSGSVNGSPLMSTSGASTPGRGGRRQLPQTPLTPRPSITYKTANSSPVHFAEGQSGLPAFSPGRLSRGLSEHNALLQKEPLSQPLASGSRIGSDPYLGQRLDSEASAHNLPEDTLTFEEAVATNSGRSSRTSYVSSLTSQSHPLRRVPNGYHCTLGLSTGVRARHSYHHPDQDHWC
Chain of Sodium channel protein type 5 subunit alpha (Q14524 whole entry): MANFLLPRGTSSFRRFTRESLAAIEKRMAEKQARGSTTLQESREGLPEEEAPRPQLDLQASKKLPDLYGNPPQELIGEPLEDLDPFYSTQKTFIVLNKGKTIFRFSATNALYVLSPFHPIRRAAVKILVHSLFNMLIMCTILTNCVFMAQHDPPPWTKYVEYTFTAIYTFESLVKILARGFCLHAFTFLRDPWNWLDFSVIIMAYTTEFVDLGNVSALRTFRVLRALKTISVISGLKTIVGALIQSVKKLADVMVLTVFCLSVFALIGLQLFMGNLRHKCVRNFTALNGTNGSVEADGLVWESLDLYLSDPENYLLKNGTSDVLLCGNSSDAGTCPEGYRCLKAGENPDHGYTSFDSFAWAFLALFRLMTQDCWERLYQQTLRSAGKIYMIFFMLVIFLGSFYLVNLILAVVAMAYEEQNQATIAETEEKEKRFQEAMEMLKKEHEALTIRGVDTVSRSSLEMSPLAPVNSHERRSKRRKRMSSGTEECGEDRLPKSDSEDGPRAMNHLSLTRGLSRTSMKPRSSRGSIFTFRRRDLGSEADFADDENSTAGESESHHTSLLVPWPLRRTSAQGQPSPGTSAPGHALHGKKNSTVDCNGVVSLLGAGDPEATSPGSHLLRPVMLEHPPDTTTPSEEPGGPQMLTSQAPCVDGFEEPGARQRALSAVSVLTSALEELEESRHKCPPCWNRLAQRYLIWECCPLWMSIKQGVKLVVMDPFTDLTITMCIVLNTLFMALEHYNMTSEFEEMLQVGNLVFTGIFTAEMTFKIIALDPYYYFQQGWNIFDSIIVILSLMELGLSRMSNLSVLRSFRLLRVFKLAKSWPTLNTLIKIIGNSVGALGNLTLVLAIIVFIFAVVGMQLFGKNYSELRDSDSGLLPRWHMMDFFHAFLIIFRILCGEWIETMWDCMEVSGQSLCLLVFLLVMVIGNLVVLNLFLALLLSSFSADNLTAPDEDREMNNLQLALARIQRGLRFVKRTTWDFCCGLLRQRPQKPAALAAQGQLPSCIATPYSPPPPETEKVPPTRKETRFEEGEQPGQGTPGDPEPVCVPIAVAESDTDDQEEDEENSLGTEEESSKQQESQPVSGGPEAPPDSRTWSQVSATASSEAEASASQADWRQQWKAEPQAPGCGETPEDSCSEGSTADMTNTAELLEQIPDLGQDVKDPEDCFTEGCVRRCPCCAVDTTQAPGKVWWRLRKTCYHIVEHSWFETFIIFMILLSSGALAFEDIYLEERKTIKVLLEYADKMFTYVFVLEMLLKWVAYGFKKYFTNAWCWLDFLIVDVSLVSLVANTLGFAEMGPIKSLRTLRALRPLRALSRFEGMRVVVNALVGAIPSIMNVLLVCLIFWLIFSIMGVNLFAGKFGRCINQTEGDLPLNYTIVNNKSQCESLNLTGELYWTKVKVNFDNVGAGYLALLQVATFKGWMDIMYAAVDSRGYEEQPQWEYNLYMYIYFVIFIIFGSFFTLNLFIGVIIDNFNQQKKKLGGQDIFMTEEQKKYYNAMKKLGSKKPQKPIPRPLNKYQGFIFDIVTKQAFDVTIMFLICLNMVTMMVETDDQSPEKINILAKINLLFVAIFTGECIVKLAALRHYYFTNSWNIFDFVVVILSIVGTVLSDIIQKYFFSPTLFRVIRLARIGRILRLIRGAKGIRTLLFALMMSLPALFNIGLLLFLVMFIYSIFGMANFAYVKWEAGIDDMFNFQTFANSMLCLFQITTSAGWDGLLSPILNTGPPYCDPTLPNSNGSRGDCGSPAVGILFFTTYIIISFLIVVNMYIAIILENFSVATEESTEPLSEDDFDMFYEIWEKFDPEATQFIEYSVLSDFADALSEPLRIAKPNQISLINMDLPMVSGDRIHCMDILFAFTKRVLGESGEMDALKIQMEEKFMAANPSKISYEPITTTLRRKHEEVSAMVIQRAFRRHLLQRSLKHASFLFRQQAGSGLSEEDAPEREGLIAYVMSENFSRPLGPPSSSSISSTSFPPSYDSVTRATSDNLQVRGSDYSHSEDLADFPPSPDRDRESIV

`CCC[C@H](NC(=O)[C@@H]1[C@H]2CCC[C@H]2CN1C(=O)[C@@H](NC(=O)[C@@H](NC(=O)c1cnccn1)C1CCCCC1)C(C)(C)C)C(=O)C(=O)NC1CC1` was tested, and the AC50 [1] was > 10 µM, the AC50 (D(1A) dopamine receptor) was > 10 µM and the AC50 (Histamine H2 receptor) was > 10 µM. For the same compound, the AC50 [2] was > 10 µM, the AC50 (Androgen receptor [3]) was > 30 µM and the AC50 [4] was > 30 µM.

With `CC(=O)N[C@@H](CS)C(=O)O` [ACETYLCYSTEINE] the AC50 (Histamine H1 receptor) was > 30 µM.

For `C=CCNc1nc(NCC=C)nc(N2CCN(C(c3ccc(F)cc3)c3ccc(F)cc3)CC2)n1` [ALMITRINE], the AC50 (Androgen receptor [5]) was > 30 µM.

In the case of `CN1CCC(=C2c3ccccc3CCc3cccnc32)CC1` [AZATADINE], the AC50 [2] is reported as > 10 µM and the AC50 (Histamine H1 receptor) is reported as > 30 µM.

Compound `CC(C)COCC(CN(Cc1ccccc1)c1ccccc1)N1CCCC1` (stereo not drawn) [BEPRIDIL] has an AC50 [6] of 2.1 µM and an AC50 [4] of 11.9 µM.

`C/N=C(\NC)NCc1ccccc1` [BETHANIDINE] was tested, and the AC50 [7] was > 30 µM.

For `CCC(C)C1(CC)C(=O)NC(=O)NC1=O` (stereo not drawn) [BUTABARBITAL], the AC50 (Androgen receptor [5]) was > 30 µM.

With `COCC1=C(C(=O)O)N2C(=O)[C@@H](NC(=O)/C(=N\OC)c3csc(N)n3)[C@H]2SC1` [CEFPODOXIME] the AC50 (Androgen receptor [5]) was > 30 µM.

In the case of `CC1OC2(CS1)CN1CCC2CC1` (stereo not drawn) [CEVIMELINE], the AC50 (Androgen receptor [3]) is reported as > 10 µM.

With `CNC1=Nc2ccc(Cl)cc2C(c2ccccc2)=[N+]([O-])C1` [CHLORDIAZEPOXIDE] the AC50 [2] was > 10 µM and the AC50 (Androgen receptor [3]) was > 30 µM.

`CC(CCc1ccc(O)cc1)NCCc1ccc(O)c(O)c1` (stereo not drawn) [DOBUTAMINE] was tested, and the AC50 [1] was > 10 µM, the AC50 (D(1A) dopamine receptor) was > 10 µM and the AC50 (Histamine H2 receptor) was > 10 µM. For the same compound, the AC50 [2] was 10.8 µM and the AC50 [4] was > 30 µM.

In the case of `CCC(=O)O[C@]1(C(=O)SCF)[C@H](C)C[C@H]2[C@@H]3C[C@H](F)C4=CC(=O)C=C[C@]4(C)[C@@]3(F)[C@@H](O)C[C@@]21C` [FLUTICASONE PROPIONATE], the AC50 [1] is reported as > 10 µM, the AC50 (D(1A) dopamine receptor) is reported as > 10 µM and the AC50 (Histamine H2 receptor) is reported as > 10 µM. The AC50 [2] was > 10 µM and the AC50 [4] was > 30 µM.

In the case of `C[C@]12CC[C@@H]3c4ccc(O)cc4C[C@@H](CCCCCCCCC[S+]([O-])CCCC(F)(F)C(F)(F)F)[C@H]3[C@@H]1CC[C@@H]2O` (stereo partly drawn) [FULVESTRANT], the AC50 [7] is reported as > 30 µM, the AC50 [6] is reported as > 10 µM and the AC50 (Histamine H1 receptor) is reported as > 30 µM.

For `Cc1cnc(C(=O)NCCc2ccc(S(=O)(=O)NC(=O)NC3CCCCC3)cc2)cn1` [GLIPIZIDE], the AC50 [8] was > 10 µM, the AC50 [1] was > 10 µM and the AC50 [9] was > 10 µM. The AC50 (Histamine H2 receptor) was > 10 µM, the AC50 [2] was > 10 µM and the AC50 [10] was > 10 µM. For the same compound, the AC50 [4] was > 30 µM.

In the case of `CCC1(c2ccccc2)CCC(=O)NC1=O` (stereo not drawn) [GLUTETHIMIDE], the AC50 [6] is reported as > 50 µM and the AC50 (Androgen receptor [3]) is reported as > 10 µM.

In the case of `CC(C)NCC(O)c1ccc(O)c(O)c1` (stereo not drawn) [ISOPROTERENOL], the AC50 [1] is reported as > 10 µM, the AC50 (D(1A) dopamine receptor) is reported as > 10 µM and the AC50 (Histamine H2 receptor) is reported as > 10 µM.
